Common to all, as to assay: ≥ marks a high value that may be exact or a test limit, other limits are often not marked, values filed in µg/mL are converted to µM
In assay [1] the test system is Escherichia coli D31.
Assay [2] concerns Klebsiella pneumoniae ATCC 700603.
Assay [3] deals with Pseudomonas aeruginosa ATCC 10145.
Assay [4] has as its system Staphylococcus aureus ATCC 27660.
Assay [5] concerns Escherichia coli K12 MG1655.
For assay [6], the system named is Escherichia coli UTI89.
In assay [7] the test system is Salmonella enterica subsp. enterica serovar Typhimurium ATCC 14028.
Assay [8] deals with Staphylococcus epidermidis.
The subject of assay [9] is Enterobacter cloacae 4172.
Assay [10] relates to Enterococcus faecalis ATCC 29212.
In assay [11] the test system is Escherichia coli 1057.
Assay [12] concerns Escherichia coli 214.
The subject of assay [13] is Escherichia coli BL21(DE3).
For assay [14], the system named is Escherichia coli C600.
Assay [15] concerns Escherichia coli ML-35p.
Assay [16] deals with Micrococcus luteus VKM B-1314.
Assay [17] concerns Staphylococcus aureus ATCC 29213.
Assay [18] relates to Bacillus subtilis VKM B-501.
Assay [19] concerns Staphylococcus aureus 209P.

Values after ≈ are worked out from the molar mass of the structure shown. Values joined by “and” are separate entries in the source; they are usually repeats but may differ in a detail not shown here. Equal values may be shown once. Some results are limits rather than exact numbers.

Broadly, the MIC is the lowest concentration found to suppress growth. A low value points to greater potency. Regarding `CC(C)C[C@H](NC(=O)[C@H](CCCCN)NC(=O)[C@H](CCCCN)NC(=O)[C@H](C)NC(=O)[C@H](CCCCN)NC(=O)[C@H](CCCCN)NC(=O)[C@H](C)NC(=O)CNC(=O)[C@H](CCCCN)NC(=O)[C@H](C)NC(=O)[C@H](Cc1c[nH]c2ccccc12)NC(=O)[C@H](C)NC(=O)[C@H](CCCCN)NC(=O)[C@H](C)NC(=O)[C@H](C)NC(=O)[C@H](CCCCN)NC(=O)[C@@H](N)CCCCN)C(=O)N[C@@H](C)C(=O)N[C@@H](CCCCN)C(=O)NCC(=O)N[C@@H](C)C(=O)NCC(=O)O` [KKAAKAWAKGAKKAKKLAKGAG], the MIC in assay [1] is 15 µM (≈ 33.2 µg/mL); in assay [2], above 15 µM; in assay [3] it was 15 µM (≈ 33.2 µg/mL); in assay [4] it was 15 µM (≈ 33.2 µg/mL).
Turning to `CC[C@H](C)[C@H](NC(=O)[C@H](CCCCN)NC(=O)[C@H](CCC(N)=O)NC(=O)[C@H](Cc1c[nH]c2ccccc12)NC(=O)[C@@H](NC(=O)[C@H](CCCN=C(N)N)NC(=O)[C@@H](N)CCCCN)[C@@H](C)CC)C(=O)N[C@@H](CCCCN)C(=O)N[C@@H](CC(N)=O)C(=O)N[C@@H](Cc1ccccc1)C(=O)N[C@@H](Cc1ccccc1)C(=O)N[C@@H](CCC(N)=O)C(=O)N[C@@H](CCCCN)C(=O)N[C@@H](CC(C)C)C(=O)O` [KRIWQKIKNFFQKL], the MIC in [5] came out at 6.25 µM (≈ 11.7 µg/mL); in assay [6], 6.25 µM (≈ 11.7 µg/mL); in assay [7], 25 µM (≈ 46.9 µg/mL); in [8], 25 µM (≈ 46.9 µg/mL).
As to `CC[C@H](C)[C@H](NC(=O)[C@@H]1CCCN1C(=O)CNC(=O)[C@@H](NC(=O)[C@H](Cc1ccccc1)NC(=O)[C@@H]1CCCN1C(=O)CNC(=O)[C@@H](NC(=O)[C@H](CCCCN)NC(=O)[C@H](Cc1cnc[nH]1)NC(=O)[C@H](Cc1c[nH]c2ccccc12)NC(=O)[C@H](CC(C)C)NC(=O)[C@H](CCCN=C(N)N)NC(=O)[C@H](CCCCN)NC(=O)[C@H](CC(C)C)NC(=O)[C@H](CCCCN)NC(=O)[C@H](CCCCN)NC(=O)[C@H](CCCN=C(N)N)NC(=O)[C@H](Cc1ccccc1)NC(=O)[C@H](CCCN=C(N)N)NC(=O)[C@H](CCCCN)NC(=O)[C@H](Cc1ccccc1)NC(=O)[C@H](CCCN=C(N)N)NC(=O)CN)C(C)C)C(C)C)C(=O)N[C@@H](CC(C)C)C(=O)N[C@@H](Cc1cnc[nH]1)C(=O)N[C@@H](Cc1ccc(O)cc1)C(=O)O` [GRFKRFRKKLKRLWHKVGPFVGPILHY], the MIC in assay [9] is 0.125 µM and 0.25 µM; in assay [10], 4 µM and 8 µM; in assay [11], 0.125 µM (≈ 0.421 µg/mL); in [12] it was 0.06 µM (≈ 0.202 µg/mL); in assay [13], 0.06 µM (≈ 0.202 µg/mL); in assay [14], 0.06 µM and 0.125 µM. Besides, the MIC was 0.06 µM (≈ 0.202 µg/mL) in assay [15]; 0.25 µM and 0.5 µM in assay [16]; 1 µM and 2 µM in assay [17].
Take `CC[C@H](C)[C@H](NC(=O)[C@H](C)NC(=O)[C@H](CCCCN)NC(=O)[C@H](CCCN=C(N)N)NC(=O)[C@H](CC(C)C)NC(=O)[C@H](Cc1ccccc1)NC(=O)[C@H](CCCCN)NC(=O)[C@H](CCCCN)NC(=O)[C@@H](NC(=O)[C@H](CC(C)C)NC(=O)[C@H](CCCCN)NC(=O)CNC(=O)[C@H](Cc1ccccc1)NC(=O)[C@H](CC(C)C)NC(=O)CN)[C@@H](C)CC)C(=O)N[C@@H](CO)C(=O)N[C@@H](Cc1ccc(O)cc1)C(=O)N[C@@H](C)C(=O)N[C@H](C(=O)N[C@@H](CCCCN)C(=O)N[C@@H](CCCCN)C(=O)N[C@@H](C)C(=O)N[C@@H](CCCN=C(N)N)C(=O)NCC(=O)N[C@@H](CCCCN)C(=O)N[C@@H](Cc1cnc[nH]1)C(=O)O)C(C)C` [GLFGKLIKKFLRKAISYAVKKARGKH]: the MIC was determined as 0.7 µM (≈ 2.07 µg/mL) in assay [18], 3 µM (≈ 8.88 µg/mL) in assay [14] and 1.5 µM (≈ 4.44 µg/mL) in assay [19].

Values taken from DBAASP.
